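Tested at 5 concentrations; 48 h exposure; 96-well plates; endpoints linearly interpolated, else capped at highest concentration. GI50 = concentration required for 50% inhibition of growth. The concentration for full growth arrest is given as TGI.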
Experiments:
Assay in all cases: DTP human tumour cell line panel, 48 h
OVCAR-5 ovarian = tested on: OVCAR-5 ovarian
EKVX NSCLC = tested on: EKVX NSCLC
HT29 colon = tested on: HT29 colon
NCI-H23 lung = tested on: NCI-H23 lung
SN12C renal = tested on: SN12C renal
LOX IMVI melanoma = tested on: LOX IMVI melanoma
MCF7 breast = tested on: MCF7 breast
HCT-116 colon = tested on: HCT-116 colon
CCRF-CEM leukemia = tested on: CCRF-CEM leukemia
IGROV1 ovarian = tested on: IGROV1 ovarian
MDA-MB-435 = tested on: MDA-MB-435
SK-MEL-2 melanoma = tested on: SK-MEL-2 melanoma
NCI/ADR-RES ovarian = tested on: NCI/ADR-RES ovarian
K-562 leukemia = tested on: K-562 leukemia
SK-OV-3 ovarian = tested on: SK-OV-3 ovarian
HCT-15 colon = tested on: HCT-15 colon
MDA-MB-231 breast = tested on: MDA-MB-231 breast
CAKI-1 renal = tested on: CAKI-1 renal
MDA-MB-468 breast = tested on: MDA-MB-468 breast
DU-145 prostate = tested on: DU-145 prostate
OVCAR-8 ovarian = tested on: OVCAR-8 ovarian
UACC-257 melanoma = tested on: UACC-257 melanoma
T-47D breast = tested on: T-47D breast
786-0 renal = tested on: 786-0 renal
TK-10 renal = tested on: TK-10 renal
HOP-92 NSCLC = tested on: HOP-92 NSCLC
RXF 393 renal = tested on: RXF 393 renal
HL-60(TB) leukemia = tested on: HL-60(TB) leukemia
RPMI-8226 leukemia = tested on: RPMI-8226 leukemia
SK-MEL-5 melanoma = tested on: SK-MEL-5 melanoma
SF-539 CNS = tested on: SF-539 CNS
HCC-2998 colon = tested on: HCC-2998 colon
NCI-H460 lung = tested on: NCI-H460 lung
SW-620 colon = tested on: SW-620 colon
UACC-62 melanoma = tested on: UACC-62 melanoma
HOP-62 NSCLC = tested on: HOP-62 NSCLC
PC-3 prostate = tested on: PC-3 prostate
A549 NSCLC = tested on: A549 NSCLC
SR leukemia = tested on: SR leukemia
SNB-19 CNS = tested on: SNB-19 CNS
OVCAR-4 ovarian = tested on: OVCAR-4 ovarian
SNB-75 CNS = tested on: SNB-75 CNS
A498 renal = tested on: A498 renal
NCI-H522 lung = tested on: NCI-H522 lung
SF-295 CNS = tested on: SF-295 CNS
MOLT-4 leukemia = tested on: MOLT-4 leukemia
HS 578T breast = tested on: HS 578T breast
UO-31 renal = tested on: UO-31 renal
SF-268 CNS = tested on: SF-268 CNS
M14 melanoma = tested on: M14 melanoma
OVCAR-3 ovarian = tested on: OVCAR-3 ovarian
SK-MEL-28 melanoma = tested on: SK-MEL-28 melanoma
MALME-3M melanoma = tested on: MALME-3M melanoma
NCI-H226 lung = tested on: NCI-H226 lung
COLO 205 colon = tested on: COLO 205 colon
BT-549 breast = tested on: BT-549 breast
U251 CNS = tested on: U251 CNS
ACHN renal = tested on: ACHN renal
KM12 colon = tested on: KM12 colon

COc1cc(/C=C/C(=O)c2ccc(NC(=O)CN3C(=O)NC(C)(c4ccccc4)C3=O)cc2)cc(OC)c1OC (stereo not drawn)
GI50 (OVCAR-5 ovarian): 10.5 µM
TGI (OVCAR-5 ovarian): 26.7 µM
GI50 (EKVX NSCLC): 12.9 µM
TGI (EKVX NSCLC): 75.8 µM
GI50 (HT29 colon): 3.75 µM
TGI (HT29 colon): 13 µM
GI50 (NCI-H23 lung): 4.61 µM
TGI (NCI-H23 lung): 19.4 µM
GI50 (SN12C renal): 12.9 µM
TGI (SN12C renal): 42 µM
GI50 (LOX IMVI melanoma): 3.09 µM
TGI (LOX IMVI melanoma): 13.2 µM
GI50 (MCF7 breast): 3.06 µM
TGI (MCF7 breast): 13.5 µM
GI50 (HCT-116 colon): 2.27 µM
TGI (HCT-116 colon): 8.61 µM
GI50 (CCRF-CEM leukemia): 2.9 µM
TGI (CCRF-CEM leukemia): > 100 µM
GI50 (IGROV1 ovarian): 4.85 µM
TGI (IGROV1 ovarian): 25.2 µM
GI50 (MDA-MB-435): 3.64 µM
TGI (MDA-MB-435): 47.9 µM
GI50 (SK-MEL-2 melanoma): 17.5 µM
TGI (SK-MEL-2 melanoma): 40.7 µM
GI50 (NCI/ADR-RES ovarian): > 100 µM
TGI (NCI/ADR-RES ovarian): > 100 µM
GI50 (K-562 leukemia): 3.16 µM
TGI (K-562 leukemia): > 100 µM
GI50 (SK-OV-3 ovarian): 37.4 µM
TGI (SK-OV-3 ovarian): > 100 µM
GI50 (HCT-15 colon): 11.7 µM
TGI (HCT-15 colon): 48.9 µM
GI50 (MDA-MB-231 breast): 4.52 µM
TGI (MDA-MB-231 breast): 25.4 µM
GI50 (CAKI-1 renal): 8.66 µM
TGI (CAKI-1 renal): > 100 µM
GI50 (MDA-MB-468 breast): 3.2 µM
TGI (MDA-MB-468 breast): 12.6 µM
GI50 (DU-145 prostate): 3.66 µM
TGI (DU-145 prostate): 15 µM
GI50 (OVCAR-8 ovarian): 5.03 µM
TGI (OVCAR-8 ovarian): > 100 µM
GI50 (UACC-257 melanoma): 11.6 µM
TGI (UACC-257 melanoma): 28 µM
GI50 (T-47D breast): 6.56 µM
TGI (T-47D breast): 69.9 µM
GI50 (786-0 renal): 8.43 µM
TGI (786-0 renal): 23.3 µM
GI50 (TK-10 renal): 46.6 µM
TGI (TK-10 renal): > 100 µM
GI50 (HOP-92 NSCLC): 34 µM
TGI (HOP-92 NSCLC): > 100 µM
GI50 (RXF 393 renal): 3.01 µM
TGI (RXF 393 renal): 12.2 µM
GI50 (HL-60(TB) leukemia): 2.26 µM
TGI (HL-60(TB) leukemia): 8.23 µM
GI50 (RPMI-8226 leukemia): 2.32 µM
TGI (RPMI-8226 leukemia): 10.2 µM
GI50 (SK-MEL-5 melanoma): 9.99 µM
TGI (SK-MEL-5 melanoma): 21.5 µM
GI50 (SF-539 CNS): 2.23 µM
TGI (SF-539 CNS): 5.69 µM
GI50 (HCC-2998 colon): 2.92 µM
TGI (HCC-2998 colon): 8.97 µM
GI50 (NCI-H460 lung): 3.93 µM
TGI (NCI-H460 lung): 22.7 µM
GI50 (SW-620 colon): 4.35 µM
TGI (SW-620 colon): 20.8 µM
GI50 (UACC-62 melanoma): 11.7 µM
TGI (UACC-62 melanoma): 24.8 µM
GI50 (HOP-62 NSCLC): 15.8 µM
TGI (HOP-62 NSCLC): 93.4 µM
GI50 (PC-3 prostate): 10.8 µM
TGI (PC-3 prostate): > 100 µM
GI50 (A549 NSCLC): 4.53 µM
TGI (A549 NSCLC): > 100 µM
GI50 (SR leukemia): 1.93 µM
TGI (SR leukemia): > 100 µM
GI50 (SNB-19 CNS): 14.9 µM
TGI (SNB-19 CNS): 32.9 µM
GI50 (OVCAR-4 ovarian): 13.4 µM
TGI (OVCAR-4 ovarian): > 100 µM
GI50 (SNB-75 CNS): 5.33 µM
TGI (SNB-75 CNS): 84.5 µM
GI50 (A498 renal): 31.6 µM
TGI (A498 renal): > 100 µM
GI50 (NCI-H522 lung): 9 µM
TGI (NCI-H522 lung): 23.7 µM
GI50 (SF-295 CNS): 14.3 µM
TGI (SF-295 CNS): 31.8 µM
GI50 (MOLT-4 leukemia): 2.57 µM
TGI (MOLT-4 leukemia): 8.25 µM
GI50 (HS 578T breast): 32.6 µM
TGI (HS 578T breast): > 100 µM
GI50 (UO-31 renal): 17.3 µM
TGI (UO-31 renal): 74.1 µM
GI50 (SF-268 CNS): 8.39 µM
TGI (SF-268 CNS): 90.8 µM
GI50 (M14 melanoma): 6.67 µM
TGI (M14 melanoma): 22.9 µM
GI50 (OVCAR-3 ovarian): 4.16 µM
TGI (OVCAR-3 ovarian): 21 µM
GI50 (SK-MEL-28 melanoma): 14.6 µM
TGI (SK-MEL-28 melanoma): 32.1 µM
GI50 (MALME-3M melanoma): 14.6 µM
TGI (MALME-3M melanoma): 44.3 µM
GI50 (NCI-H226 lung): 19.3 µM
TGI (NCI-H226 lung): > 100 µM
GI50 (COLO 205 colon): 13.7 µM
TGI (COLO 205 colon): 30.4 µM
GI50 (BT-549 breast): 4.73 µM
TGI (BT-549 breast): 21.2 µM
GI50 (U251 CNS): 2.7 µM
TGI (U251 CNS): 12.4 µM
GI50 (ACHN renal): 13.6 µM
TGI (ACHN renal): 46.7 µM
GI50 (KM12 colon): 3.69 µM
TGI (KM12 colon): 17.8 µM

Source: PubChem BioAssay (NCI)
